Where no end group is shown, it is not given here.

For data set [1], the system named is BAK7 (BAK7-ECD). As to the kind of experiment: Yeast two-hybrid with BAK7-ECD. Type of data set: binding, Arabidopsis thaliana. Conditions: yeast AH109, medium lacking Leu, Trp, His. The source says:
Fig 6 AtRALF1 interacts physically with BAK1 protein. (A) The active AtRALF1 peptide interacts with the extracellular domain (ECD) of BAK1 (BAK1-ECD) in yeast. The AtRALF1 protein fused to the GAL4 DNA-binding domain (AtRALF1-pGBKT7) was used as bait to test its interaction with the extracellular domain of the proteins fused to the GAL4 activation domain (pGADT7): BAK1 (BAK1-ECD), BAK7 (BAK7-ECD), BRI1 (BRI1-ECD) and FLS2 (FLS2-ECD). (B) Blueprint showing the truncated proteins from the extracellular domain of BAK1 tested in the two-hybrid assay. The extracellular domain of BAK1 comprises leucine zippers (LZ), 5 leucine rich-regions (LRRs) and a proline-rich region (pro-rich). (C) AtRALF1-pGBKT7 was used as bait to test its interaction with truncated proteins fused to the GAL4 activation domain (pGADT7). […] HA-BAK1-ECD was detected with an anti-HA antibody. AtRALF1 was detected with an anti-RALF antibody. […] BAK1-GFP was detected with an anti-GFP antibody. […]
The coding regions of the mature peptides AtRALF1 and AtRALF34 were amplified from Arabidopsis genomic DNA and fused to the GAL4 DNA-binding domain and the MYC epitope tag using the NdeI/BamHI sites in the pGBKT7 (Clontech) vector. […] The proteins fused to the HA and MYC epitope tags were detected by protein blotting. […]

Data set [2] concerns BAK1-GFP. As to the kind of experiment: Co-immunoprecipitation with microsomal fraction of N. benthamiana leaves expressing BAK1-GFP. Conditions: 600 nM peptide, 1 h, 4 °C, anti-GFP antibody. The class given is binding, Arabidopsis thaliana. As for the experimental part: This assay was performed as previously described with some modifications. The BAK1 coding region was amplified from Arabidopsis genomic cDNA using standard PCR with the primers BAK1 Fw and BAK1 Rv (S1 Table). To generate the p35S-BAK1:GFP plasmid, the fragment was cloned into the pENTR D-TOPO vector and later transferred to the pk7FWG2 vector [56]. Leaves from N. benthamiana plants were agroinfiltrated with p19 vector alone and p19 co-expressed with p35S-BAK1:GFP, as previously described. After 3 days, leaves were homogenized in extraction buffer [300 mM sucrose, 100 mM Tris-HCl pH 7.5, 25 mM EDTA, 25 mM NaF, 1 mM Na2MoO4, 1 mM PMSF, 1 mM DTT and protease inhibitor cocktail (Roche), pH 6.2 adjusted] and centrifuged at 1,000 g for 10 min at 4°C, and the supernatant was then centrifuged at 100,000 g for 50 min at 4°C to precipitate the microsomal pellet. The pellet was resuspended in the extraction buffer plus 0.5% Triton-X and incubated with 600 nM recombinant AtRALF1 or 600 nM RALF1(I6A) for 1 h at 4°C. The complexes were incubated with anti-GFP antibody (Santa Cruz Biotechnology) and Sepharose Beads plus protein A (Life Technologies) overnight at 4°C. […] The AtRALF1/BAK1-GFP complex bound to the beads was eluted with denaturing in 10 μl of 1X loading buffer (NuPAGE LDS buffer) at 95°C for 8 min, then analyzed by SDS-PAGE. The proteins were detected as previously described.

A short description of data set [3]: ITC of AtRALF1 into buffer. The class given is physicochemical. Conditions: AtRALF1 0.7 mM injected in 15 mM HEPES, pH 6.8, 25°C (S15A Fig). As to the method:
ITC was performed using a VP ITC with a 1.4 ml standard cell and a 293 μl titration syringe. Proteins were dissolved in ITC buffer (15 mM HEPES (4-(2-hydroxyethyl)-1-piperazineethanesulfonic acid, pH 6.8) and the experiments were performed at 25°C. Molar protein concentration for BAK1-ECD and AtRALF1 were calculated using their molecular weight of 25,654.04 and 7,631 Da, respectively (determined by HPLC). The concentrations for the complex titrations were 0.7 mM of protein (BAK1-ECD) in the syringe and 0.03 mM of ligand (AtRALF1) in the cell at time intervals of 300 s (28 injections of volume 10 μl) to ensure that the titration peak returned to the baseline.
Supplementary file pgen.1007053.s015.pdf: S15 Fig Isothermal titration calorimetry (ITC) of AtRALF1 and BAK1-ECD. (A) AtRALF1 in 15mM HEPES, pH 6.8. ITC experiments were simulated using the following parameters: 28 injections of AtRALF1 (0.7 mM, volume 10 μL) in HEPES (volume cell = 1.4 mL) at 25°C. (B) BAK1-ECD in 15mM HEPES, pH 6.8. ITC experiments were simulated using the following parameters: 28 injections of BAK1-ECD (0.7 mM, volume 10 μL) in HEPES (volume cell = 1.4 mL) at 25°C. (C) HEPES in AtRALF1. ITC experiments were simulated using the following parameters: 28 injections of buffer 15mM HEPES, pH 6.8 (volume 10 μL) in AtRALF1 (0.03 mM, volume cell = 1.4 mL) at 25°C. (PDF) Click here for additional data file.

In the case of “AtRALF1: root-specific RALF isoform in Arabidopsis; recombinant peptide hormone produced in E. coli (ATTKYISYQSLKRNSVPCSRRGASYYNCQNGAQANPYSRGCSKIARCRS; ends and bridges not checked; cysteine pairing not given here)”, in data set [1], the “interaction with BAK7-ECD (Y2H complementation)” value was “able to complement only the BAK1-ECD construct”. Besides, the “co-immunoprecipitation with BAK1-GFP” value in data set [2] was “co-immunoprecipitated when the anti-GFP antibody was used”. In data set [3], the heat of dissociation entry was “exhibits heat of dissociation”.

The values above are taken from article PMC5656322, “BAK1 is involved in AtRALF1-induced inhibition of root cell expansion” (PLoS Genetics, 2017).
